Where no end group is shown, it is not given here.
What was measured:
S. aureus (ATCC 29213) = test: MIC, standard microtiter dilution (CLSI); format: cell-based; settings: broth microdilution (CLSI), CAMHB, 37 °C, 24 h
Outline: (§1)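 Broth microdilution per CLSI: overnight cultures diluted in cation-adjusted Mueller Hinton Broth to 10^6 CFU/mL, mixed with 2-fold serial peptide dilutions, incubated 37 °C for 24 h. MIC = lowest peptide concentration inhibiting growth. Three independent assays in triplicate.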

MRSA (ATCC BAA-1556) [1] = test: Flow cytometric analysis of PI-stained cells; format: cell-based, methicillin-resistant S. aureus; settings: flow cytometry; for PI fluorescence of MRSA cells at MIC: 1 h treatment, 10^7 CFU/mL
Description: The flow cytometric analysis was performed by using MRSA (ATCC BAA-1556) and E. coli (ATCC BAA-2452) cultures grown to the mid log phase in Mueller Hinton broth (HIMEDIA). Before treatment, bacterial cells were washed thrice with buffer (10 mM Tris, pH 7.4) and resuspended in the same buffer to obtain 10^7 CFU/mL bacterial suspensions. Test peptides (8a and 8b) and the standard antibiotics (daptomycin and polymyxin B) at MIC and 4 × MIC were incubated with bacterial suspension for 1 h. Following the treatment with test peptides, the cells were pelleted by centrifugation at 3000g for 15 min in a microcentrifuge. The supernatant was decanted, and the cells were washed with PBS several times and then incubated with PI ([…]) in the dark for 15 min at 37 °C. FACS analysis of the stained bacterial cells was performed using a FACscan flow cytometer (BD Accuri C6, BD Biosciences, California, USA), and data were analyzed by using Cell Quest software.

[2] = test system: K. pneumoniae (ATCCBAA-1705); test: MIC, standard microtiter dilution (CLSI); format: cell-based, Klebsiella pneumoniae; settings: broth microdilution (CLSI), CAMHB, 37 °C, 24 h
Outline: as §1

[3] = test system: P. aeruginosa (ATCC 27883); test: MIC, standard microtiter dilution (CLSI); format: cell-based, Pseudomonas aeruginosa; settings: broth microdilution (CLSI), CAMHB, 37 °C, 24 h
Outline: as §1

E. faecium (ATCC 700221) = test: microbe, parasite or virus in culture; settings: Gram-positive, vancomycin-resistant; CLSI microdilution, CAMHB, 37 °C, 24 h; highest MIC of three independent experiments in triplicate
Description: (§2) Description of the characteristics and growth conditions of various bacterial strains used in the study are provided in the Supporting Information (Table S3). Antibacterial susceptibility testing was carried out using a standard microtiter dilution method recommended by the clinical and laboratory standard institute (CLSI) and measured as a minimum inhibitory concentration (MIC), the lowest peptide concentration that inhibited bacterial growth. Briefly, the overnight grown cultures in the recommended broth for each bacterial strain were diluted in cation-adjusted Mueller Hinton Broth (CAMHB) to give an inoculum of 10^6 colony-forming units (CFU)/mL. A 2-fold serially diluted test peptide solution (100 μL) was added to the microtiter plates. After adding bacterial suspension (100 μL), the plates were incubated at 37 °C for 24 h, and the MICs were determined. The same protocol was used to determine the MICs in the presence of salts and serum except using the media supplemented with various cationic salts (150 mM NaCl, 4.5 mM KCl, 6 mM NH4Cl, 1 mM MgCl2, and 2 mM CaCl2) or 25% FBS. The data was acquired from three independent assays performed in triplicate.
(§3) The bacterial strains employed in this study were obtained from the American Type Culture Collection (ATCC). Each strain was propagated as recommended by the ATCC, and each strain was stored as a frozen glycerol stock at -80°C. A bacterial colony was grown on the appropriate agar as indicated in Table S1 and was used to inoculate the appropriate broth. The culture was incubated at the appropriate conditions, as mentioned in Table S1. Following the incubation, the culture was diluted to an optical density 625 nm (OD625) of 0.1 in cation adjusted Mueller Hinton Broth (CAMHB), which is equivalent to 1 × 10^8 CFU/mL. The culture was further diluted to 1 × 10^6 CFU/mL, which was used to conduct the MIC determination assay. For the S. pneumoniae strains, CAMHB + 2.5% lysed horse blood was required for the assay. The strains with their […]
(§4) Table S3. Description of the characteristics and growth conditions of various bacterial strains

E. faecalis (ATCC 51575) = test: microbe, parasite or virus in culture; settings: Gram-positive, vancomycin-resistant; CLSI microdilution, CAMHB, 37 °C, 24 h; highest MIC of three independent experiments in triplicate
Description: as §2, §3, §4

E. faecium (ATCC 27270) = test: microbe, parasite or virus in culture
Description: as §2, §3, §4

[4] = Calcein dye leakage assay; settings: after 100 min, 10% Triton X-100 = 100%, triplicate
Description: The calcein dye leakage assay was conducted using the large unilamellar vesicles (LUVs) composed of 1,2-dioleoyl-sn-glycero-3-phosphocholine (DOPC) and 1,2-dioleoyl-sn-glycero-3-phosphoglycerol (DOPG) to mimic the bacterial membrane (DOPC/DOPG, 7:3, w/w) or mammalian membrane (DOPC/cholesterol, 10:1, w/w), as we described previously.[18] At various concentrations (5, 10, 20, 30, and 50 μg/mL) test peptides 8a and 8b (50 μL) mixed with liposome suspension (50 μL), and fluorescence intensity was read every 10 min for 100 min at an excitation wavelength of 490 nm and an emission wavelength of 520 nm on a SpectraMax M5 multi-mode microplate reader. Considering calcein release from liposomes treated with a 10% solution (w/v) of Triton X-100 as 100%, the apparent percentage of dye leakage was calculated using the following formula [drawing 2] where F is the intensity measured at a given peptide concentration, F0 is the background intensity of the liposome sample, and Ft is the intensity after lysis induced by Triton X-100.

MRSA (ATCC BAA-1556) [5] = test: Bactericidal kinetic assay; format: cell-based, methicillin-resistant S. aureus; settings: for killing of MRSA cells at 4 × MIC: after 4 h of incubation
Description: The time course of bacterial killing was studied by the exposure of overnight grown cultures of MRSA (ATCC BAA-1556) and E. coli (ATCC BAA-2452) to 8a and 8b at the MIC and 4× the MIC in Muller Hinton media. Bacterial cells (2 × 10^6 CFU/mL) were treated with peptides and standard antibiotics and incubated at 37 °C. Aliquots were withdrawn at a 30 min time interval for 4 h and plated on the agar plate to determine the number of viable bacterial colonies. Data were obtained from two independent experiments performed in triplicate.

[6] = 10^6 CFU/mL, highest MIC of three independent experiments in triplicate
[7] = bacterial membrane mimicking LUVs
[8] = mammalian membrane mimicking LUVs

| Compound | MIC, S. aureus (ATCC 29213) (S. aureus (ATCC 29213); [6]) [µg/mL] | MIC, S. aureus (ATCC 29213) (S. aureus (ATCC 29213); value in parentheses (μM)) [µM] | PI fluorescence of MRSA cells at MIC (MRSA (ATCC BAA-1556) [1]) [%] | MIC, K. pneumoniae (ATCCBAA-1705) [2, 6] [µg/mL] | MIC, K. pneumoniae (ATCCBAA-1705) ([2]; value in parentheses (μM)) [µM] | MIC, P. aeruginosa (ATCC 27883) [3, 6] [µg/mL] | MIC, P. aeruginosa (ATCC 27883) ([3]; value in parentheses (μM)) [µM] | MIC, E. faecium (ATCC 700221) (E. faecium (ATCC 700221)) [µg/mL] | MIC, E. faecalis (ATCC 51575) (E. faecalis (ATCC 51575)) [µg/mL] | MIC, E. faecium (ATCC 27270) (E. faecium (ATCC 27270); ATCC 27270, 24 h) [µg/mL] | calcein dye leakage, 5 μg/mL [4, 7] | calcein dye leakage, 50 μg/mL [4, 8] | killing of MRSA cells at 4 × MIC (MRSA (ATCC BAA-1556) [5]) | PI-stained population of MRSA cells (MRSA (ATCC BAA-1556) [1]; MIC and 4 × MIC, 1 h) | MIC, E. faecium (ATCC 27270) (E. faecium (ATCC 27270); Gram-positive, CLSI microdilution, CAMHB, 37 °C, 24 h, highest MIC of three independent experiments in triplicate) [µg/mL] | calcein dye leakage, 50 μg/mL [4, 7] [%] | time to complete killing of MRSA at 4 × MIC (MRSA (ATCC BAA-1556) [5]; 4 × MIC) [h] |
| --- | --- | --- | --- | --- | --- | --- | --- | --- | --- | --- | --- | --- | --- | --- | --- | --- | --- |
| KWLKKWLKWWKK-NH2 [8b] | 3.1 | 1.76 | 42.1 | 6.2 | 3.53 | 6.2 | 3.53 | 3.1 | 6.2 | 3.1 | approximately 30% | 10% | completely eliminated |  |  |  |  |
| KWIKKWIKWWKK-NH2 [7b] | 6.2 | 3.53 |  | 25 | 14.23 | 6.2 | 3.53 | 6.2 | 6.2 | 6.2 |  |  |  |  |  |  |  |
| RWLRRWLRWWRR-NH2 [8a] | 6.2 | 3.22 | 34.2 | 12.5 | 6.49 | 12.5 | 6.49 | 3.1 | 6.2 | 6.2 | approximately 30% | 19% | completely eliminated |  |  |  |  |
| CCCCCCCCCC(=O)N[C@@H](Cc1c[nH]c2ccccc12)C(=O)N[C@H](CC(N)=O)C(=O)N[C@@H](CC(=O)O)C(=O)N[C@@H]1C(=O)NCC(=O)N[C@@H](CCCN)C(=O)N[C@@H](CC(=O)O)C(=O)N[C@H](C)C(=O)N[C@@H](CC(=O)O)C(=O)NCC(=O)N[C@H](CO)C(=O)N[C@@H]([C@H](C)CC(=O)O)C(=O)N[C@@H](CC(=O)c2ccccc2N)C(=O)O[C@@H]1C [daptomycin, reference compound] | 0.7 | 0.43 |  |  |  |  |  | 6.2 | 12.5 |  |  | around 7% |  | did not significantly increase | 1.5 | 42 | 3 |
| RWIRRWIRWWRR-NH2 [7a] | 6.2 | 3.22 |  | 12.5 | 6.49 | 6.2 | 3.22 | 6.2 | 12.5 | 6.2 |  |  |  |  |  |  |  |

Reference: PMC9841524, “Structure-Based Rational Design of Small α-Helical Peptides with Broad-Spectrum Activity against Multidrug-Resistant Pathogens” (Journal of Medicinal Chemistry, 2022)
